Experiments:
[1] = test system: Apis mellifera; details: acute; duration: 48 hours; dermal; mortality
[2] = test system: Colinus virginianus; details: for LD50: acute, oral, mortality
[3] = test system: Rattus norvegicus
[4] = test system: Canidae; details: chronic; duration: 1 years; oral; diet; M/F; Beagle; hematological
[5] = test system: Daphnia magna; details: chronic/long-term; duration: 21 days; mortality
[6] = test system: Pimephales promelas; details: chronic/long-term; duration: 34 days; reproduction
[7] = test system: Anas platyrhynchos; details: short-term; oral; feed; mortality
[8] = test system: Tagia sp.; details: mortality
[9] = test system: Folsomia candida; details: chronic/long-term; duration: 28 days
[10] = test system: Bibionidae; details: chronic/long-term; duration: 28 days
[11] = test system: Oncorhynchus mykiss; details: acute; duration: 96 hours; mortality
[12] = test system: Typhlodromus pyri; experiment: LR50; higher = less toxic; details: not reported; mortality
[13] = test system: Aphidius rhopalosiphi; experiment: LR50; higher = less toxic; details: not reported; mortality

`O=C(NC(=O)c1c(F)cccc1F)Nc1ccc(Oc2ccc(C(F)(F)F)cc2Cl)cc1F` [Flufenoxuron] gave an LD50 [1] of over 100 µg/piece, an LD50 ([2]; diet) of over 1240 mg/kg-day and an LD50 [2] of over 2000 mg/kg-day. For the same compound, the NOEL ([2]; reproduction developmental) was 9.76 mg/kg-day, the LD50 ([3]; acute, oral, mortality) was over 3000 mg/kg-day and the NOAEL ([3]; reproduction developmental, growth) was 4.3 mg/kg-day. It also gave an NOAEL [4] of at most 3.8 mg/kg-day, an NOEC [5] of 3.24e-06 mg/L and an NOEC [6] of 0.00082 mg/L. For the same compound, the LD50 [7] was over 1240 mg/kg-day, the LC50 ([8]; acute, duration: 14 days) was over 1000 mg/kg and the NOEC ([8]; chronic/long-term, duration: 56 days) was 5 mg/kg. For the same compound, the NOEC [9] was 0.11 mg/kg, the NOEC [10] was 3.6e-05 mg/L and the LC50 [11] was over 5 ng/mL. It also gave an LR50 [12] of 73 g/ha and an LR50 [13] of over 386 g/ha.

Source: EPA's ToxValDB 9.5 (doi:10.2903/j.efsa.2011.2088)
